Experimental data as given in PMC6598440 (Clinical chemistry, 2016).
Where two headings read alike, the source gives them in different places.

Experiments:
[1] = Comparison of plasma and whole blood hydroxyurea concentrations; format: in vivo, patients with SCA
[2] = for degradation: whole dried blood on DMPK-C cards and VAMS devices, 4 °C, 30 days
[3] = cited from earlier work

Structure (SMILES): NC(=O)NO [hydroxyurea, Hydroxyurea]
- hydroxyurea concentrations in plasma and whole blood compared ([1]; patients with SCA treated with hydroxyurea, venipuncture or finger-prick sampling): comparable
- plasma and whole blood hydroxyurea concentrations compared ([1]; preliminary data using an HPLC method): equivalent
- % of the target concentration measured in freshly prepared samples ([2]; DMPK-C cards, stored at 4 °C, 0.5 μg/mL, T = 7 days): 90.17 ± 0.44%
- % of the target concentration measured in freshly prepared samples ([2]; DMPK-C cards, stored at 4 °C, 0.5 μg/mL, T = 14 days): 81.75 ± 3.85%
- % of the target concentration measured in freshly prepared samples ([2]; DMPK-C cards, stored at 4 °C, 0.5 μg/mL, T = 30 days): 75.85 ± 4.08%
- % of the target concentration measured in freshly prepared samples ([2]; DMPK-C cards, stored at 4 °C, 60.0 μg/mL, T = 7 days): 65.37 ± 1.07%
- % of the target concentration measured in freshly prepared samples ([2]; DMPK-C cards, stored at 4 °C, 60.0 μg/mL, T = 14 days): 54.13 ± 3.39%
- % of the target concentration measured in freshly prepared samples ([2]; DMPK-C cards, stored at 4 °C, 60.0 μg/mL, T = 30 days): 48.58 ± 0.23%
- % of the target concentration measured in freshly prepared samples ([2]; DMPK-C cards, stored at −20 °C, 0.5 μg/mL, T = 7 days): 95.08 ± 0.01%
- % of the target concentration measured in freshly prepared samples ([2]; DMPK-C cards, stored at −20 °C, 0.5 μg/mL, T = 14 days): 90.56 ± 13.29%
- % of the target concentration measured in freshly prepared samples ([2]; DMPK-C cards, stored at −20 °C, 0.5 μg/mL, T = 30 days): 96.07 ± 5.12%
- % of the target concentration measured in freshly prepared samples ([2]; DMPK-C cards, stored at −20 °C, 60.0 μg/mL, T = 7 days): 90.88 ± 1.83%
- % of the target concentration measured in freshly prepared samples ([2]; DMPK-C cards, stored at −20 °C, 60.0 μg/mL, T = 14 days): 92.99 ± 2.03%
- % of the target concentration measured in freshly prepared samples ([2]; DMPK-C cards, stored at −20 °C, 60.0 μg/mL, T = 30 days): 93.07 ± 3.11%
- % of the target concentration measured in freshly prepared samples ([2]; DMPK-C cards, stored at −80 °C, 0.5 μg/mL, T = 7 days): 102.14 ± 0.59%
- % of the target concentration measured in freshly prepared samples ([2]; DMPK-C cards, stored at −80 °C, 0.5 μg/mL, T = 14 days): 97.41 ± 14.36%
- % of the target concentration measured in freshly prepared samples ([2]; DMPK-C cards, stored at −80 °C, 0.5 μg/mL, T = 30 days): 99.98 ± 3.81%
- % of the target concentration measured in freshly prepared samples ([2]; DMPK-C cards, stored at −80 °C, 60.0 μg/mL, T = 7 days): 93.69 ± 3.64%
- % of the target concentration measured in freshly prepared samples ([2]; DMPK-C cards, stored at −80 °C, 60.0 μg/mL, T = 14 days): 94.22 ± 2.34%
- % of the target concentration measured in freshly prepared samples ([2]; DMPK-C cards, stored at −80 °C, 60.0 μg/mL, T = 30 days): 100.45 ± 1.09%
- % of the target concentration measured in freshly prepared samples ([2]; VAMS devices, stored at 4 °C, 0.5 μg/mL, T = 7 days): 87.90 ± 10.32%
- % of the target concentration measured in freshly prepared samples ([2]; VAMS devices, stored at 4 °C, 0.5 μg/mL, T = 14 days): 91.86 ± 7.97%
- % of the target concentration measured in freshly prepared samples ([2]; VAMS devices, stored at 4 °C, 0.5 μg/mL, T = 30 days): 75.11 ± 0.56%
- % of the target concentration measured in freshly prepared samples ([2]; VAMS devices, stored at 4 °C, 60.0 μg/mL, T = 7 days): 64.19 ± 1.28%
- % of the target concentration measured in freshly prepared samples ([2]; VAMS devices, stored at 4 °C, 60.0 μg/mL, T = 14 days): 51.98 ± 0.46%
- % of the target concentration measured in freshly prepared samples ([2]; VAMS devices, stored at 4 °C, 60.0 μg/mL, T = 30 days): 46.14 ± 0.98%
- % of the target concentration measured in freshly prepared samples ([2]; VAMS devices, stored at −20 °C, 0.5 μg/mL, T = 7 days): 106.52 ± 12.11%
- % of the target concentration measured in freshly prepared samples ([2]; VAMS devices, stored at −20 °C, 0.5 μg/mL, T = 14 days): 103.15 ± 2.56%
- % of the target concentration measured in freshly prepared samples ([2]; VAMS devices, stored at −20 °C, 0.5 μg/mL, T = 30 days): 95.37 ± 6.01%
- % of the target concentration measured in freshly prepared samples ([2]; VAMS devices, stored at −20 °C, 60.0 μg/mL, T = 7 days): 83.69 ± 1.28%
- % of the target concentration measured in freshly prepared samples ([2]; VAMS devices, stored at −20 °C, 60.0 μg/mL, T = 14 days): 82.55 ± 1.65%
- % of the target concentration measured in freshly prepared samples ([2]; VAMS devices, stored at −20 °C, 60.0 μg/mL, T = 30 days): 82.48 ± 0.78%
- % of the target concentration measured in freshly prepared samples ([2]; VAMS devices, stored at −80 °C, 0.5 μg/mL, T = 7 days): 101.92 ± 10.34%
- % of the target concentration measured in freshly prepared samples ([2]; VAMS devices, stored at −80 °C, 0.5 μg/mL, T = 14 days): 103.58 ± 3.20%
- % of the target concentration measured in freshly prepared samples ([2]; VAMS devices, stored at −80 °C, 0.5 μg/mL, T = 30 days): 106.00 ± 8.10%
- % of the target concentration measured in freshly prepared samples ([2]; VAMS devices, stored at −80 °C, 60.0 μg/mL, T = 7 days): 86.62 ± 1.86%
- % of the target concentration measured in freshly prepared samples ([2]; VAMS devices, stored at −80 °C, 60.0 μg/mL, T = 14 days): 90.21 ± 0.94%
- % of the target concentration measured in freshly prepared samples ([2]; VAMS devices, stored at −80 °C, 60.0 μg/mL, T = 30 days): 93.53 ± 0.68%
- degradation ([2]; 0.5 μg/mL): 25%
- degradation ([2]; 60 μg/mL): 52%
- typical peak serum or plasma hydroxyurea concentrations ([3]; children with SCA, measured by colorimetry): 15 to 45 µg/mL
- elimination [3]: primarily by renal clearance
- half-life [3]: 1 to 3 h
- time drug is detectable after the daily dose ([3]; most patients): 6 to 8 h
- time of peak serum concentrations after administration ([3]; oral, once daily): 15 to 60 min
- oral bioavailability ([3]; oral): excellent
